Data published in ChEMBL document CHEMBL3774304, “Novel morpholin-3-one fused quinazoline derivatives as EGFR tyrosine kinase inhibitors” (Bioorg Med Chem Lett, 2016).

How the values were obtained:
[1] = biological target: T1, Epidermal growth factor receptor (Homo sapiens, UniProt P00533)
Target sequence in this assay (P00533 whole entry): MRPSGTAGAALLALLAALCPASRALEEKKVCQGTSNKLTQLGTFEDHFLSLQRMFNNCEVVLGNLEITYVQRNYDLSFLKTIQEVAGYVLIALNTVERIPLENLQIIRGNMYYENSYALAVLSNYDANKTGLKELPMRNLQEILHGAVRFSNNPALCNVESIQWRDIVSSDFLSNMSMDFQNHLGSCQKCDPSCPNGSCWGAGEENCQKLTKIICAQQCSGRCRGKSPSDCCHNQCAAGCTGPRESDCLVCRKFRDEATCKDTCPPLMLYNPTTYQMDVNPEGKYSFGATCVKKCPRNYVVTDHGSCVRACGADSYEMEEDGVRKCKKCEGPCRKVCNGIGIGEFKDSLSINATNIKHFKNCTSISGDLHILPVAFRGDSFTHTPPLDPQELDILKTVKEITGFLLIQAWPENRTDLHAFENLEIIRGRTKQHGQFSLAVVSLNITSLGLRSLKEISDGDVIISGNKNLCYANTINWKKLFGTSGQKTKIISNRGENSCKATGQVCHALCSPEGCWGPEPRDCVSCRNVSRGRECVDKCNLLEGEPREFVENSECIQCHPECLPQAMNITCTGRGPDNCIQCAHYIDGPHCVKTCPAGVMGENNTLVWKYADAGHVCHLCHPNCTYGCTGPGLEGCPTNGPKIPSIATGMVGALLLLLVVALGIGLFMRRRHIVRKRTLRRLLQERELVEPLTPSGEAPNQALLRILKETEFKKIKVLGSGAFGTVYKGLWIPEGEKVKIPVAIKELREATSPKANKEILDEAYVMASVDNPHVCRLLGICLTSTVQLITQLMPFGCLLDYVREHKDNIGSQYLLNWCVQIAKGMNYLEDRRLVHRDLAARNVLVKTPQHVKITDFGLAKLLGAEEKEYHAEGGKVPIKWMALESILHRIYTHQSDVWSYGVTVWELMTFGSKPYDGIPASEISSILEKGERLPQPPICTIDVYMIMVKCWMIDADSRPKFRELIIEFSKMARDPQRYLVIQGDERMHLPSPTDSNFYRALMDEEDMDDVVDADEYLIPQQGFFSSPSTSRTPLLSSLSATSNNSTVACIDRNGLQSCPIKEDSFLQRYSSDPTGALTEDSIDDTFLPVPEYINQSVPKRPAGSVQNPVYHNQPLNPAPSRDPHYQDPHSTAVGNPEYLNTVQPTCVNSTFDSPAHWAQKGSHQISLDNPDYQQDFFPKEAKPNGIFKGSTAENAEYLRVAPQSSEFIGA
Description: Inhibition of wildtype EGFR (unknown origin) preincubated for 30 mins followed by addition of 2x ATP-substrate mixture measured after 1 hr by Kinase Glo luminescent kinase assay

[2] = system: A549; assay: cells; assay type: functional, cell-based; conditions: Homo sapiens, A549, 48 h
Description: Antiproliferative activity against human A549 cells assessed as viable cells after 48 hrs by CCK8 assay

[3] = biological target: T1, Epidermal growth factor receptor; assay type: protein assay
Target sequence in this assay (P00533 25-1210 limits assumed, change not shown): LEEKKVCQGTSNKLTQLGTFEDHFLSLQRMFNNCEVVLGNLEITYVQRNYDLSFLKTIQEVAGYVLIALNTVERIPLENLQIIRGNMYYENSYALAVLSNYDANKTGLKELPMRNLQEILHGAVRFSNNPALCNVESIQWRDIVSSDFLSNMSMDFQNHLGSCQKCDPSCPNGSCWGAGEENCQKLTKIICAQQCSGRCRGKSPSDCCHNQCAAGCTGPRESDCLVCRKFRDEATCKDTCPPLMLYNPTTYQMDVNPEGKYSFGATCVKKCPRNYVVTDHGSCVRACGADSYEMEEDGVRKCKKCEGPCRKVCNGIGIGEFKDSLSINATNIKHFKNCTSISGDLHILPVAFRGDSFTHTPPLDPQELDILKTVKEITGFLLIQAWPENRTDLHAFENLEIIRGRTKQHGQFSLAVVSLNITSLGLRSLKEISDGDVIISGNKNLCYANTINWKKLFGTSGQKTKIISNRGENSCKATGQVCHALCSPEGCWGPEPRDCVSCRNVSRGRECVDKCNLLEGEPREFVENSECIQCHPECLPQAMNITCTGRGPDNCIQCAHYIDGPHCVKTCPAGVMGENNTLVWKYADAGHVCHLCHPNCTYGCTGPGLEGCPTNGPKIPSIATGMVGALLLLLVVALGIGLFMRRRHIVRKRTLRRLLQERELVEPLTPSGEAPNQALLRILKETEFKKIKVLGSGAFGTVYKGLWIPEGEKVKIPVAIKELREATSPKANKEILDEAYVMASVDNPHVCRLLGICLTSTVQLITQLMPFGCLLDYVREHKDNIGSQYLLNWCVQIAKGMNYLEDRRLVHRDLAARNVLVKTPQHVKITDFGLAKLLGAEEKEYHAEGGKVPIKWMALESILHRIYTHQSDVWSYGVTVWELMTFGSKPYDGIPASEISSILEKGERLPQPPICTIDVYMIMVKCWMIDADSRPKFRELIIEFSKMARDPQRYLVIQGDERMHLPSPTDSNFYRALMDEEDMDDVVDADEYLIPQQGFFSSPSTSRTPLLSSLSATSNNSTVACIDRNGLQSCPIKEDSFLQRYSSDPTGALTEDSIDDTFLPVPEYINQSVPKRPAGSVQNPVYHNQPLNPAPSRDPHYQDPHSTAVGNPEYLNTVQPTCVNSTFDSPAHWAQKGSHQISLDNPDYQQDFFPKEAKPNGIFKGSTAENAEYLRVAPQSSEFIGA
Description: Inhibition of EGFR-T790M/L858 mutant (unknown origin) preincubated for 30 mins followed by addition of 2x ATP-substrate mixture measured after 1 hr by Kinase Glo luminescent kinase assay

[4] = system: NCI-H358; assay: cells; assay type: functional, cell-based; conditions: Homo sapiens, NCI-H358, 48 h
Description: Antiproliferative activity against human NCI-H358 cells assessed as viable cells after 48 hrs by CCK8 assay

| Structure (SMILES) | IC50 [1] [nM] | also measured |
| --- | --- | --- |
| C#Cc1cccc(Nc2ncnc3cc4c(cc23)N(CCCN2CCCCC2)C(=O)CO4)c1 | 211 | – |
| O=C1COc2cc3ncnc(Nc4ccc(F)cc4)c3cc2N1CCCN1CCOCC1 | 434 | – |
| Cc1ccc(Nc2ncnc3cc4c(cc23)N(CCCN2CCOCC2)C(=O)CO4)cc1Cl | 163 | – |
| O=C1COc2cc3ncnc(Nc4ccc(Br)cc4)c3cc2N1CCCN1CCOCC1 | 824 | – |
| Cc1ccc(Nc2ncnc3cc4c(cc23)N(CCCN2CCOCC2)C(=O)CO4)cc1 | 594 | – |
| COc1cccc(Nc2ncnc3cc4c(cc23)N(CCCN2CCOCC2)C(=O)CO4)c1 | > 1000 | – |
| C#Cc1cccc(Nc2ncnc3cc4c(cc23)N(CCCN2CCOCC2)C(=O)CO4)c1 | 139 | IC50 [2]: 5.58 µM; IC50 [3]: 880 nM; IC50 [4]: 13.5 µM |
| O=C1COc2cc3ncnc(Nc4cccc(C(F)(F)F)c4)c3cc2N1CCCN1CCOCC1 | 829 | – |
| O=C1COc2cc3ncnc(Nc4ccccc4)c3cc2N1CCCN1CCOCC1 | 519 | – |
| O=C1COc2cc3ncnc(Nc4cccc(F)c4)c3cc2N1CCCN1CCOCC1 | 245 | – |
| COc1ccc(Nc2ncnc3cc4c(cc23)N(CCCN2CCOCC2)C(=O)CO4)cc1OC | > 1000 | – |
| Cc1cccc(Nc2ncnc3cc4c(cc23)N(CCCN2CCOCC2)C(=O)CO4)c1 | 187 | – |
| Cc1cccc(Nc2ncnc3cc4c(cc23)N(CCCN2CCCCC2)C(=O)CO4)c1 | 456 | – |
| O=C1COc2cc3ncnc(Nc4ccc(Cl)cc4)c3cc2N1CCCN1CCOCC1 | 354 | – |

The next lines start with results.

| IC50 [1] [nM] | Structure (SMILES) | also measured |
| --- | --- | --- |
| 89.6 | O=C1COc2cc3ncnc(Nc4cccc(Br)c4)c3cc2N1CCCN1CCOCC1 | – |
| 63.1 | O=C1COc2cc3ncnc(Nc4cccc(Cl)c4)c3cc2N1CCCN1CCOCC1 | – |
| 138 | O=C1COc2cc3ncnc(Nc4ccc(F)c(Cl)c4)c3cc2N1CCCN1CCCCC1 | – |
| 99 | O=C1COc2cc3ncnc(Nc4cccc(Br)c4)c3cc2N1CCCN1CCCCC1 | – |
| 116 | O=C1COc2cc3ncnc(Nc4cccc(Cl)c4)c3cc2N1CCCN1CCCCC1 | – |
| 53.1 | O=C1COc2cc3ncnc(Nc4ccc(F)c(Cl)c4)c3cc2N1CCCN1CCOCC1 | IC50 [2]: 7.51 µM; IC50 [3]: 336 nM; IC50 [4]: 13.5 µM |
